These results are taken from patent US10155754B2, “Substituted 2-imino-1,3-thiazolidin-4-ones as N-arachidonoylethanolamine cellular uptake inhibitors” (UNIVERSITAT BERN, priority 2014, dated 2018).

One may read the IC50 as the point on the concentration scale where inhibition reaches its midpoint.

For one assay, the system named is AEA cellular uptake (U937 cells). Nature of the assay: [3H]-AEA cellular uptake inhibition in U937 cells. It is filed as cell-based. The conditions noted are these: Homo sapiens, U-937, U937 cells, final 100 nM AEA with 0.5 nM [3H]-AEA, 15 min at 37° C.; read-out: AEA uptake IC50. As to the method:
[^3H]-AEA Cellular Uptake
Screening for AEA cellular uptake inhibition was performed in a semi-automated procedure: Pipetting and washing steps were performed by a Biomek3000 laboratory workstation. First, required amounts of U937 cells were centrifuged at 100×g for 5 min and resuspended in RPMI (37° C.) to a final concentration of 2×10^6 cells/mL. Then, 250 μL of cell suspension (0.5×10^6 cells per sample) were transferred into AquaSil™ silanized glass vials (Chromacol 1.1-MTV) in 96-well format. After addition of 5 μL vehicle (DMSO) or compounds the cells were incubated at 37° C. for 15 min. As positive controls OMDM-2 and UCM707 were used at 10 μM in each run. The ETI-T compounds were measured at up to 7 concentrations in triplicates from 100 pM-100 μM. After pre-incubation, a mixture of 0.5 nM [ethanolamine-1-^3H]-AEA, (60 Ci/mmol) and 99.5 nM of cold AEA (final 100 nM) was added and samples were incubated at 37° C. for another 15 min. The reaction was stopped by rapid filtration over UniFilter-96 GF/C filters (PerkinElmer) pre-soaked with PBS 0.25% BSA. Cells were washed three times with 100 μL ice-cold PBS buffer containing 1% fatty acid free BSA. After drying, 45 μL MicroScint 20 scintillation cocktail (PerkinElmer, Waltham, Mass., US) was added to the wells and the plate was sealed. Radioactivity was measured by liquid scintillation counting on a PerkinElmer Wallac Trilux MicroBeta 1450 during 2 min. Non-specific binding of [^3H]AEA (100 nM) to the glass vials was never higher than 10%. IC50 values were calculated by GraphPad® by non-linear regression using the built-in log(inhibitor) vs. response-variable slope (four parameters) function.
In the case of `COCc1cccc(/C=C2\S/C(=N\c3ccccc3)N(c3ccccc3)C2=O)c1` [compound 15, (2Z,5Z)-5-(3-(methoxymethyl)benzylidene)-3-phenyl-2-(phenylimino)thiazolidin-4-one], the 50% inhibitory concentration (IC50) stood at 1030 nM. As to `COCc1cccc(/C=C2\S/C(=N\Cc3ccccc3)N(CCCc3ccccc3)C2=O)c1` [15_C_K, (2Z,5Z)-5-(3-(methoxymethyl)benzylidene)-2-(benzylimino)-3-(3-phenylpropyl)thiazolidin-4-one], the IC50 stood at 692 nM.

As to `O=C1/C(=C/c2ccc3[nH]cnc3c2)S/C(=N\c2ccccc2)N1Cc1ccccc1` [03_N_C, (2Z,5Z)-5-((1H-benzo[d]imidazol-5-yl)methylene)-3-benzyl-2-(phenylimino)thiazolidin-4-one], the concentration for half-maximal inhibition (IC50) was found to be 610 nM. The same measure, in the same setting: for `Cc1ccc(/N=C2\S/C(=C\c3ccc(CO)cc3)C(=O)N2c2ccccc2)nc1` [22_D_N, (2Z,5Z)-5-(4-(hydroxymethyl)benzylidene)-2-(5-methylpyridin-2-ylimino)-3-phenylthiazolidin-4-one] the value was 1450 nM. Still for that read-out and setting: the value for `O=C1/C(=C/c2ccc3[nH]cnc3c2)S/C(=N\CCc2ccccc2)N1c1ccccc1` [04_U_N, (2Z,5Z)-5-((1H-benzo[d]imidazol-5-yl)methylene)-2-(phenethylimino)-3-phenylthiazolidin-4-one] was 1400 nM; that for `O=C1/C(=C/c2ccc3[nH]ccc3c2)S/C(=N\c2ccccc2)N1CCCc1ccccc1` [03_N_K, (2Z,5Z)-5-((1H-indol-5-yl)methylene)-2-(phenylimino)-3-(3-phenylpropyl)thiazolidin-4-one] was 564 nM; that for `O=C1/C(=C/c2ccc3c(c2)OCCO3)S/C(=N\CCCc2ccccc2)N1c1ccccc1` [24_K_N, (2Z,5Z)-2-(3-phenylpropylimino)-5-((2,3-dihydrobenzo[b][1,4]dioxin-7-yl)methylene)-3-phenylthiazolidin-4-one] was 1620 nM.

On to `COCc1ccc(/C=C2\S/C(=N\c3ccccc3)N(c3ccccc3)C2=O)cc1` [compound 34, (2Z,5Z)-5-(4-(methoxymethyl)benzylidene)-3-phenyl-2-(phenylimino)thiazolidin-4-one], for which the half-maximal inhibitory concentration (IC50) was more than 10000 nM.

For the molecule `O=C1/C(=C/c2ccc3[nH]cnc3c2)S/C(=N\Cc2ccccc2)N1c1ccc(F)cc1` [04_C_B, (2Z,5Z)-5-((1H-benzo[d]imidazol-5-yl)methylene)-2-(benzylimino)-3-(4-fluorophenyl)thiazolidin-4-one], the half-maximal inhibitory concentration (IC50) came out at 861 nM.

Regarding `COc1ccc(C/N=C2\S/C(=C\c3ccccc3)C(=O)N2c2ccccc2)cc1` [23_Q_N, (2Z,5Z)-2-(4-methoxybenzylimino)-5-benzylidene-3-phenylthiazolidin-4-one], the concentration for half-maximal inhibition (IC50) was determined as 598 nM. Take `CCCCN1C(=O)/C(=C/c2ccc(CO)cc2)S/C1=N\c1ccccc1` [22_N_G, (2Z,5Z)-5-(4-(hydroxymethyl)benzylidene)-3-butyl-2-(phenylimino)thiazolidin-4-one]: the IC50 is 1090 nM. The same measure, in the same setting: for `Cn1ncc2cc(/C=C3\S/C(=N\c4ccccc4)N(c4ccccc4)C3=O)ccc21` [compound 28, (2Z,5Z)-5-((1-methyl-1H-indazol-5-yl)methylene)-3-phenyl-2-(phenylimino)thiazolidin-4-one] the value was 515 nM; for `C/N=C1\S/C(=C\c2ccc(CO)cc2)C(=O)N1c1ccccc1` [22_E_N, (2Z,5Z)-5-(4-(hydroxymethyl)benzylidene)-2-(methylimino)-3-phenylthiazolidin-4-one], more than 10000 nM; for `COCc1cccc(/C=C2\S/C(=N\Cc3ccccc3Cl)N(c3ccccc3)C2=O)c1` [15_T_N, (2Z,5Z)-2-(2-chlorobenzylimino)-5-(3-(methoxymethyl)benzylidene)-3-phenylthiazolidin-4-one], 2640 nM. As to `CC(C)CN1C(=O)/C(=C/c2ccccc2)S/C1=N\c1ccc(F)cc1` [23_B_X, (2Z,5Z)-2-(4-fluorophenylimino)-5-benzylidene-3-isobutylthiazolidin-4-one], the 50% inhibitory concentration (IC50) turned out to be 1130 nM. As to `O=C1/C(=C/c2ccc3c(c2)OCCO3)S/C(=N\Cc2cccnc2)N1c1ccccc1` [24_S_N, (2Z,5Z)-2-((pyridin-3-yl)methylimino)-5-((2,3-dihydrobenzo[b][1,4]dioxin-7-yl)methylene)-3-phenylthiazolidin-4-one], the IC50 came out at 1430 nM. With `O=C1/C(=C/c2ccc(CO)cc2)S/C(=N\Cc2ccccc2)N1CCc1ccccc1` [15_C_O, (2Z,5Z)-5-(4-(hydroxymethyl)benzylidene)-2-(benzylimino)-3-phenethylthiazolidin-4-one], the half-inhibitory concentration (IC50) was 1560 nM. The same measure, in the same setting: for `Cc1ccc(N2C(=O)/C(=C/c3ccc4[nH]ccc4c3)S/C2=N\c2ccc(F)cc2)cc1` [03_B_A, (2Z,5Z)-5-((1H-indol-5-yl)methylene)-2-(4-fluorophenylimino)-3-p-tolylthiazolidin-4-one] the value was 760 nM.

For `Cc1ccc(/N=C2\S/C(=C\c3ccc4c(c3)OCCO4)C(=O)N2c2ccccc2)cc1` [24_A_N, (2Z,5Z)-2-(p-tolylimino)-5-((2,3-dihydrobenzo[b][1,4]dioxin-6-yl)methylene)-3-phenylthiazolidin-4-one], the 50% inhibitory concentration (IC50) came to 1510 nM. The same measure, in the same setting: the value for `O=C1/C(=C/c2ccc(CO)cc2)S/C(=N\Cc2ccc(F)cc2)N1c1ccccc1` [22_P_N, (2Z,5Z)-5-(4-(hydroxymethyl)benzylidene)-2-(4-fluorobenzylimino)-3-phenylthiazolidin-4-one] was 500 nM; that for `CC(C)CN1C(=O)/C(=C/c2ccc3[nH]cnc3c2)S/C1=N\c1ccc(F)cc1` [04_B_X, (2Z,5Z)-5-((1H-benzo[d]imidazol-5-yl)methylene)-2-(4-fluorophenylimino)-3-isobutylthiazolidin-4-one] was 578 nM; that for `CC(C)(C)c1ccc(C/N=C2\S/C(=C\c3ccc(CO)cc3)C(=O)N2c2ccccc2)cc1` [22_R_N, (2Z,5Z)-5-(4-(hydroxymethyl)benzylidene)-2-(4-tert-butylbenzylimino)-3-phenylthiazolidin-4-one] was 5180 nM.

Still in this assay, the particulars now being: Homo sapiens, U-937, U937 cells, final 100 nM AEA with 0.5 nM [3H]-AEA, 15 min at 37° C.; read-out: AEA uptake inhibition IC50.
As for `O=C1/C(=C/c2ccc3sccc3c2)S/C(=N\c2ccccc2)N1c1ccccc1`, the half-inhibitory concentration (IC50) stood at 4630 nM. On the same count and under the same terms, for `O=C1/C(=C/c2ccccc2)S/C(=N\Cc2ccccc2)N1c1ccccc1` [drawing 130] the value was 180 nM. With `O=C1/C(=C/c2ccc3[nH]cnc3c2)S/C(=N\Cc2ccccc2)N1c1ccccc1`, the IC50 came to 2140 nM. Turning to `CCCCN1C(=O)/C(=C/c2ccc(CO)cc2)S/C1=N\c1ccccc1` [drawing 158], the half-inhibitory concentration (IC50) came out at 1090 nM.

As for `COc1ccc(/C=C2\S/C(=N\c3ccccc3)N(c3ccccc3)C2=O)cn1`, the IC50 amounted to 15600 nM. Regarding `O=C1/C(=C/c2ccc3c(c2)OCO3)S/C(=N\c2ccccc2)N1c1ccccc1`, the IC50 was found to be 3360 nM. As to `CSc1ccc(/C=C2\S/C(=N\c3ccccc3)N(c3ccccc3)C2=O)cc1`, the half-maximal inhibitory concentration (IC50) was found to be 9940 nM. With `COc1ccc(/C=C2\S/C(=N\c3ccccc3)N(c3ccc(OC)cc3)C2=O)cc1`, the half-maximal inhibitory concentration (IC50) came out at 7180 nM.

Turning to `COCc1cccc(/C=C2\S/C(=N\Cc3ccccc3)N(c3ccccc3)C2=O)c1` [drawing 139], the half-maximal inhibitory concentration (IC50) turned out to be 1690 nM.

For the molecule `O=C1/C(=C/c2ccc3[nH]ccc3c2)S/C(=N\c2ccccc2)N1Cc1ccccc1`, the IC50 was 610 nM. On to `COc1ccc(/C=C2\S/C(=N\Cc3ccccc3)N(c3ccccc3)C2=O)cc1`, for which the half-maximal inhibitory concentration (IC50) is 440 nM. On the same count and under the same terms, for `O=C1/C(=C/c2ccc3[nH]ccc3c2)S/C(=N\c2ccccc2)N1Cc1ccco1` [drawing 153] the value was 879 nM; for `C/N=C1\S/C(=C\c2ccc(OC)cc2)C(=O)N1c1ccccc1`, 6920 nM.

Consider `O=C1/C(=C/c2ccccc2)S/C(=N\c2ccccc2)N1Cc1ccccc1`, for which the IC50 stood at 5420 nM.

As to `COc1ccc(/C=C2\S/C(=N\c3ccccc3)N(Cc3ccco3)C2=O)cc1`, the 50% inhibitory concentration (IC50) is 3180 nM. The same measure, in the same setting: for `CCCCN1C(=O)/C(=C/c2ccc3[nH]cnc3c2)S/C1=N\c1ccccc1` [drawing 154] the value was 557 nM. Take `O=C1/C(=C/c2ccc3[nH]c(=O)oc3c2)S/C(=N\c2ccccc2)N1c1ccccc1`: the IC50 is 5560 nM.

As for `COc1ccc(/N=C2\S/C(=C\c3ccc4[nH]cnc4c3)C(=O)N2c2ccccc2)cc1` [drawing 147], the IC50 amounted to 164 nM.

As to `O=C1/C(=C/c2ccc3cc[nH]c3c2)S/C(=N\c2ccccc2)N1c1ccccc1`, the IC50 was determined as 2300 nM. Still for that read-out and setting: the value for `COc1ccnc(/C=C2\S/C(=N\c3ccccc3)N(c3ccccc3)C2=O)c1` was 1600 nM; that for `Cc1ccc(/N=C2\S/C(=C\c3ccc4[nH]cnc4c3)C(=O)N2c2ccccc2)nc1` [drawing 146] was 1590 nM.

On to `COc1ccc(/C=C2\S/C(=N\c3ccc(C)cn3)N(c3ccccc3)C2=O)cc1`, for which the 50% inhibitory concentration (IC50) was found to be 2800 nM.

The assay is the same for the next values; noted with them: U937 cells, final 100 nM AEA with 0.5 nM [3H]-AEA, 15 min at 37° C.; read-out: AEA uptake IC50.
Regarding “(2Z,5Z)-5-((1H-benzo[d]imidazol-5-yl)methylene)-3-butyl-2-(phenylimino)thiazolidin-4- [03_N_G]”, the IC50 stood at 677 nM.
